These results are taken from patent US20120196884A1, “UREA SUBSTITUTED SULPHONAMIDE DERIVATIVES” (BIOTIE THERAPIES CORPORATION, priority 2009, published 2012).

Entries after “also recorded” stand apart in the source; their conditions may differ.

Experiment [1] relates to platelet adhesion to collagen. Kind of experiment: Cellix microfluidic system: platelet adhesion to collagen coated capillary under flow. The class given is cell-based, human. Also noted: key to Inhibition of platelet adhesion to collagen: + indictes that the compound efficiently inhibited the platelet adhesion to collagen. To be noted: for Inhibition of platelet adhesion to collagen: whole blood, collagen coated capillary, shear 90 dynes/cm^2. On the procedure: Cellix microfluidic platform models human blood vessels providing a dynamic set-up mimicking physiological conditions to test new therapeutic agents (Cellix Ltd). The platform was used to measure the platelet adhesion to collagen coated capillary under flow. An anti-coaculated whole blood sample was run through a collagen coated capillary under a constant shear and the size of thrombi on capillary wall was analyzed with analysis program (DucoCell, Cellix Ltd).
The capillary were coated with Horm collagen 20 μg/mL (Nycomed) and incubated for 24 h in +4° C. Background was blocked with 1% BSA (bovine serum albumin, Sigma) treatment for 30 min in room temperature. Blood was collected from a donor into blood collection tubes containing 40 μM PPACK (Dphenylalanyl-L-prolyl-L-arginine chloromethyl-ketone, Calbiochem) as anticoagulant. Blood was treated either with inhibitory compounds or vehicle controls. Samples were kept at room temperature for 5 minutes. The samples were run through the capillary with the constant shear rate (90 dynes/cm^2, Mirus 1.0 Nanopump, Cellix Ltd) for 5 min and capillary was washed with JNL buffer (6 mM Dextrose, 0.13 M NaCl, 9 mM Na Bicarb, 10 mM Na Citrate, 10 mM Tris base, 3 mM KCl, 0.81 mM KH2PO4, 0.9 mM MgCl2; pH was adjusted to 7.35 with 19 mM Citrate acid anhydrous, 37 mM Sodium citrate, 67 mM Dextrose) with the constant shear rate (90 dynes/cm^2) for 2 min. After that the average thrombi area on the capillary wall was analyzed with DucoCell analysis program (Cellix Ltd).

In the next experiment the test system is IL-6. The experiment in a line: LPS-induced IL-6 release in whole blood. The class given is cell-based, human. To be noted: LPS 0.25 ng/mL, 2 h. The procedure:
The inflammatory cells are shown to be dependent on α2β1 function during inflammatory process. The anti-inflammatory potential of the α2β1 modulators was studied by measuring the effect on the release of cytokines like IL-6 as an example from inflammatory cells. Lipopolysaccharide (LPS) was used to induce the production of IL-6. Anticoaculated whole blood sample was incubated with or without the integrin α2β1 inhibitor before LPS was added to induce the cytokine release. The amount of cytokine IL-6 released from peripheral blood leukocytes was measured from plasma samples 2 hours after the induction.
Blood was collected from the donors via venipuncture into evacuated Lithium heparin tubes (VenoJect, Terumo). Blood was treated with either α2β1 integrin inhibitors or vehicle control (DMSO). Samples were kept at room temperature for 5 minutes and lipopolysaccharide (LPS, 0.25 ng/mL) was added to induce cytokine release from peripheral blood lymphocytes. Samples were inculabted for 2 h in 37° C., the plasma was isolated and the amount of IL-6 was determined with Human IL-6 Quantikine ELISA Kit (R&D Systems).

The subject of another experiment is PC-3 cells. Kind of experiment: PC-3 cell invasion through Matrigel. It counts as cell-based. To be noted: Homo sapiens, 72 hours. From the text: The overexpression regulates cell adhesion and migration to and invasion through the extracellular matrix. By blocking the interaction between extracellular matrix components like collagen and α2β1 it is possible to block cancer cell migration and invasion in vitro. Prostate cancer cells (PC-3) expressing α2β1 endogenously were used to test the in vitro anticancer potential of the inhibitors of the present invention.
Invasion of PC-3 cells (CRL-1435, ATCC) through Matrigel was studied using BD Biocoat invasion inserts (BD Biosciences). Inserts were stored at −20° C. Before the experiments inserts were allowed to adjust to the room temperature. 500 μl of serum free media (Ham's F12K medium, 2 mM Lglutamine, 1.5 g/l sodium bicarbonate) was added into the inserts and allowed to rehydrate at 37° C. in cell incubator for two hours. The remaining media was aspirated. PC-3 cells were detached, pelleted and suspended into serum free media (50 000 cells/500 μL). 300 μL of cell suspension was added into the insert in the absence (control) or presence of the inhibitor according to the present invention. Inserts were placed on the 24-well plates; each well containing 700 μL of cell culture media with 3% of fetal bovine serum as chemoattractant. Cells were allowed to invade for 72 hours at 37° C. in cell incubator. Inserts were washed with 700 μL PBS, and fixed with 4% paraformaldehyde for 10 minutes. Paraformaldehyde was aspirated and cells were washed with 700 μL of PBS and inserts were stained by incubation with hematoxylin for 1 minute. The stain was removed by washing the inserts with 700 μL of PBS. Inserts were allowed to dry. Fixed invaded cells were calculated under the microscope. Invasion % was calculated as a comparison to the control.

In another experiment the test system is whole blood. Kind of experiment: PFA-100 platelet function analyzer, closure time of whole blood. It counts as cell-based. The following applies: PFA-100 analysis, collagen and ADP membrane. The procedure:
The PFA-100 is a high shear-inducing device that simulates primary haemostasis after injury of a small vessel. The system comprises a test-cartridge containing a biologically active membrane coated with collagen and ADP. An anticoaculated whole blood sample was run through a capillary under a constant vacuum. […] The time required to obtain full occlusion of the aperture was designated as the closure time. Each compound was added to the whole blood sample and the closure time was measured with PFA-100.
Blood was collected from a donor via venipuncture into evacuated blood collection Lithium heparin tubes (VenoJect, Terumo). Blood was aliquoted into 1.5 mL tubes and treated with either inhibitory compounds or controls (DMSO). Samples were kept at room temperature with rotation for 10 minutes and after that the closure time (Ct) of the blood was measured.

Consider `CN(c1ccc(NC(=O)Nc2ccccc2)cc1)S(=O)(=O)c1cnn(-c2ccc(F)cn2)c1` [Compound B1], for which the “platelet adhesion to collagen coated capillary under flow (FIG. 1)” value in experiment [1] (Cellix analysis, flow conditions) is listed as “dose dependent inhibitory effect; also recorded: inhibits the platelet adhesion to collagen coated capillary under mimicking physiological flow conditions dose dependently”. In addition, in experiment [1], the “Inhibition of platelet adhesion to collagen” value (shortened to “Inhibition … to collagen”) is reported as “+”.

Turning to `CN(c1ccc(NC(=O)Nc2ccccc2)cc1)S(=O)(=O)c1cnn(-c2ccc(F)cc2)c1` [Compound B3], the “Inhibition … to collagen” value in experiment [1] is on record as “+”.

For `CN(c1ccc(NC(=O)Nc2ccccc2)cc1)S(=O)(=O)c1ccc(-c2ccnn2C)s1` [Compound B6], in the experiment on IL-6, the “release of IL-6 after induction with LPS” value is “decreases the release of cytokines like IL-6”.

`CN(C)c1ccc(-c2ccc(S(=O)(=O)N(C)c3ccc(NC(=O)Nc4ccccc4)cc3)s2)cn1` [Compound B7]: in experiment [1], the “Inhibition … to collagen” value was “+”.

Take `CN(c1ccc(NC(=O)Nc2ccccc2)cc1)S(=O)(=O)c1ccc(-c2ccccn2)s1` [Compound B11]: in experiment [1], the “Inhibition … to collagen” value was “+”.

In the case of `CN(c1ccc(NC(=O)Nc2ccccc2)cc1)S(=O)(=O)c1ccc(-n2ccnc2)s1` [Compound B17], in experiment [1], the “Inhibition … to collagen” value is reported as “+”.

Consider `CN(c1ccc(NC(=O)Nc2ccccc2)cc1)S(=O)(=O)c1ccc(-c2cc(C(F)(F)F)nn2C)s1` [Compound B19], for which, in experiment [1], the “Inhibition … to collagen” value is on record as “+”.

As to `O=C(Nc1ccccc1)Nc1ccc(N(CCCO)S(=O)(=O)c2cccc(-c3ccc(F)cc3)c2)cc1` [Compound B33], in experiment [1], the “Inhibition … to collagen” value is “+”.

`Cc1ccc(NC(=O)Nc2ccccc2)cc1NS(=O)(=O)c1cccc(-c2ccc(F)cc2)c1` [Compound B40] showed an inhibition at 5 µM with PC-3 cells of 98%. Moreover, the “Inhibition … to collagen” value in experiment [1] was “+”.

On to `Cc1ccccc1NC(=O)Nc1ccc(C)c(NS(=O)(=O)c2cccc(-c3ccc(F)cc3)c2)c1` [Compound B42], for which the “Inhibition … to collagen” value in experiment [1] is “+”.

Regarding `O=C(Nc1ccccc1)Nc1cc(NS(=O)(=O)c2cccc(-c3ccc(F)cc3)c2)ccc1Cl` [Compound B47], in the experiment with PC-3 cells, the inhibition at 5 µM came out at 96%.

Take `CN(c1ccc(NC(=O)Nc2ccccc2)cc1)S(=O)(=O)c1cncc(-c2ccc(F)cc2)c1` [Compound B52]: testing at 5 µM in the experiment with PC-3 cells gave an inhibition of 25%.

With `Cc1nn(-c2ccc(F)cc2)c(C)c1S(=O)(=O)N(CCCO)c1ccc(NC(=O)Nc2ccccc2)cc1` [Compound B54], in experiment [1], the “Inhibition … to collagen” value is “+”.

In the experiment on PC-3 cells, `CN(c1ccc(NC(=O)Nc2ccccc2)cc1)S(=O)(=O)c1cccc(-c2ccc(F)cc2)c1` [Compound B55] yielded an inhibition at 5 µM of 76%.

`COCCOc1cccc(NC(=O)Nc2ccc(NS(=O)(=O)c3cccc(-c4ccc(F)cc4)c3)cc2)c1` [Compound B60] gave an inhibition at 5 µM with PC-3 cells of 70%. Also, the “Inhibition … to collagen” value in experiment [1] is given as “+”.

`Cc1ccc(NC(=O)Nc2ccccc2)cc1N(C)S(=O)(=O)c1cccc(-c2ccc(F)cc2)c1` [Compound B63] displayed an inhibition at 5 µM in the experiment on PC-3 cells of 45%.

`Cc1ccccc1NC(=O)Nc1ccc(NS(=O)(=O)c2cccc(-c3ccc(F)cc3)c2)cc1` [Compound B64] showed an inhibition at 5 µM in the experiment with PC-3 cells of 42%.

Consider `Cc1ccc(NC(=O)NCc2ccccc2)cc1NS(=O)(=O)c1cccc(-c2ccc(F)cc2)c1` [Compound B67], for which 5 µM produced 10% inhibition in the experiment on PC-3 cells. Besides, in experiment [1], the “Inhibition … to collagen” value was “+”.

As for `CN(c1ccc(NC(=O)Nc2ccccc2)cc1)S(=O)(=O)c1cccc(OC(F)F)c1` [Compound B68], in the experiment with PC-3 cells, the inhibition at 5 µM was determined as 29%.

Regarding `COc1ccc(NC(=O)Nc2ccc(NS(=O)(=O)c3cccc(-c4ccc(F)cc4)c3)cc2)cc1` [Compound B72], the inhibition at 5 µM in the experiment with PC-3 cells was 39%.

In the experiment on PC-3 cells, `CN(c1ccc(NC(=O)Nc2ccncc2)cc1)S(=O)(=O)c1cccc(-c2ccc(F)cc2)c1` [Compound B75] returned an inhibition at 5 µM of 38%.

`CN(c1ccc(NC(=O)Nc2ccccc2)cc1)S(=O)(=O)c1ccc(Cl)cc1Cl` [Compound B77] yielded an inhibition at 5 µM with PC-3 cells of 40%.

`CN(c1ccc(NC(=O)Nc2ccccc2)cc1)S(=O)(=O)c1cccc(C#N)c1` [Compound B78] displayed an inhibition at 5 µM with PC-3 cells of 30%. Further, the “Inhibition … to collagen” value in experiment [1] was “+”.

`CN(c1ccc(NC(=O)Nc2ccccc2)cc1)S(=O)(=O)c1cc(C(F)(F)F)ccc1Cl` [Compound B80]: in the experiment with PC-3 cells, testing at 5 µM gave an inhibition of 43%.

Regarding `O=C(Nc1ccccc1)Nc1ccc(Cl)c(NS(=O)(=O)c2cccc(-c3ccc(F)cc3)c2)c1` [Compound B86], in the experiment with PC-3 cells, the inhibition at 5 µM stood at 44%.

`O=C(NCc1ccccc1)Nc1ccc(NS(=O)(=O)c2cccc(-c3ccc(F)cc3)c2)cc1` [Compound B91] displayed an inhibition at 5 µM in the experiment on PC-3 cells of 56%.

For `O=C(Nc1ccncc1)Nc1ccc(NS(=O)(=O)c2cccc(-c3ccc(F)cc3)c2)cc1` [Compound B93], in experiment [1], the “Inhibition … to collagen” value is recorded as “+”.

Turning to `O=C(Nc1ccccc1)Nc1ccc(NS(=O)(=O)c2cccc(-c3ccc(F)cc3)c2)cc1` [Compound B94], in the experiment with PC-3 cells, the inhibition at 5 µM came to 40%. Besides, in experiment [1], the “Inhibition … to collagen” value was “+”. Besides, the “closure time (Ct) of the whole blood” value in the experiment on whole blood is “increases the closure time (Ct)”.

On to `COc1ccc(-n2cc(S(=O)(=O)N(C)c3ccc(NC(=O)Nc4ccccc4)cc3)cn2)cn1` [Compound B109], for which the “Inhibition … to collagen” value in experiment [1] is recorded as “+”.

What is called inhibition is the drop in the measured response relative to a control, in per cent.
